Assay results as given in US20250230193A1, “CYCLIC COMPOUND HAVING SELECTIVE KRAS INHIBITORY EFFECT ON HRAS AND NRAS” (CHUGAI SEIYAKU KABUSHIKI KAISHA, priority 2022, published 2025).
Values belong to the molecule of their own block, whether it stands above or below them. *1 amine or outer side, *2 acyl side, *3 side chain or, on linkers, in order; H or OH if unused. Where a SMILES comes first, the peptide text is derived from it. Bridges are numbered along the chain shown (N, C = ends). [ ]: non-standard residue; d: D form. hPhe(3,5-F2-4-CF3) = N[C@@H](CCc1cc(F)c(C(F)(F)F)c(F)c1)C(=O)O; hPhe(3-Cl-4-CF3) = N[C@@H](CCc1ccc(C(F)(F)F)c(Cl)c1)C(=O)O; X8 = CCCN([C@@H](Cc1ccc(OCC=[*:3])cc1)C(=O)[*:2])[*:1]; X4 = CCCN([C@@H](COCCC(C)C)C(=O)[*:2])[*:1]; X7 = CN([C@@H](CCC=[*:3])C(=O)[*:2])[*:1]; NMeGly(cPent) = CN[C@H](C(=O)O)C1CCCC1; Hyp = O=C(O)[C@@H]1C[C@@H](O)CN1; NMeD = CN[C@@H](CC(=O)O)C(=O)O; NMeL = CN[C@@H](CC(C)C)C(=O)O; NMeA = CN[C@@H](C)C(=O)O; Ac5c = NC1(C(=O)O)CCCC1; Aze = O=C(O)[C@@H]1CCN1; Ac4c = NC1(C(=O)O)CCC1; Sar = CNCC(=O)O

Columns and labels:
[1] = target: GDP-bound KRAS wild-type protein (Homo sapiens, UniProt P01116); assay: Binding to KRAS by surface plasmon resonance (SPR), Single Cycle Kinetics
[2] = target: GDP-bound NRAS wild-type protein (Homo sapiens, UniProt P01111); assay: Binding to NRAS by surface plasmon resonance (SPR), Single Cycle Kinetics
[3] = target: GDP-bound HRAS wild-type protein (Homo sapiens, UniProt P01112); assay: Binding to HRAS by surface plasmon resonance (SPR), Single Cycle Kinetics
[4] = test system: human lung cancer strain NCI-H441
[5] = SPR Single Cycle Kinetics, GDP-bound KRAS wild-type protein, 1:1 binding model
[6] = KD ratio, GDP-bound NRAS wild-type vs GDP-bound KRAS wild-type, SPR
[7] = KD ratio, GDP-bound HRAS wild-type vs GDP-bound KRAS wild-type, SPR
[8] = SPR, GDP-bound wild-type proteins

Chain of GDP-bound HRAS wild-type protein (P01112 whole entry): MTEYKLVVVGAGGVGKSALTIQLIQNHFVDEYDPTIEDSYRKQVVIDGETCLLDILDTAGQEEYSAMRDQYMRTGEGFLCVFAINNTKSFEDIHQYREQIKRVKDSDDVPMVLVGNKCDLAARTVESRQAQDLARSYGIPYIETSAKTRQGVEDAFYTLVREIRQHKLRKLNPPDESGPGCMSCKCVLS
Chain of GDP-bound NRAS wild-type protein (P01111 whole entry): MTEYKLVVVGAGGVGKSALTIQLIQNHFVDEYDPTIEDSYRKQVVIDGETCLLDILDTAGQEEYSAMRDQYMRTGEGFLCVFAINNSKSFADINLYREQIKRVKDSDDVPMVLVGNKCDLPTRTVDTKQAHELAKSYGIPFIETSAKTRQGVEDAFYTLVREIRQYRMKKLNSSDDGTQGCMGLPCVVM

Kd [1, 5]: 0.6 nM
Compound: CCCN1C(=O)[C@@H]2CCN2C(=O)[C@H](C)N(C)C(=O)[C@H]([C@@H](C)CC)NC(=O)[C@H](CC(C)C)N(C)C(=O)C[C@@H](C(=O)N(C)C)N(C)C(=O)[C@H](C2CCCC2)N(C)C(=O)C2(CCC2)NC(=O)[C@@H]2CCCN2C(=O)[C@H](CCc2ccc(C(F)(F)F)c(Cl)c2)NC(=O)CN(C)C(=O)[C@@H]1COCCC(C)C [PP1820, (3S,9S,12S,17S,20S,23S,27S,30S,36S)-3-[2-[3-chloro-4-(trifluoromethyl)phenyl]ethyl]30-cyclopentyl-23-isobutyl-9-(isopentyloxymethyl)-N,N,7,17,18,24,28,31-octamethyl-20-[(1S)-1-methylpropyl]-2,5,8,11,16,19,22,25,29,32,35-undecaoxo-10-propyl-spiro[1,4,7,10,15,18,21,24,28,31,34-undecazatricyclo[34.3.0.012,15]nonatriacontane-33,1′-cyclobutane]-27-carboxamide] ([NMeL]I[NMeA][Aze][X4][Sar][hPhe(3-Cl-4-CF3)]P[Ac4c][NMeGly(cPent)][NMeD]-NMe2; lactam N-11)
NRAS/KRAS (ratio of KD value for NRAS to KD value for KRAS) [2, 6]: C (A compound having a KD ratio of 0.1 or more and less than 3 is denoted as C) | HRAS/KRAS (ratio of KD value for HRAS to KD value for KRAS) [3, 7]: C (A compound having a KD ratio of 0.1 or more and less than 3 is denoted as C)

Kd [1, 5]: 3000 nM
Compound: CC[C@H](C)[C@@H]1NC(=O)[C@H](CC(C)C)N(C)C(=O)CSC[C@@H](C(=O)N(C)C)N(C)C(=O)[C@H](C2CCCC2)N(C)C(=O)C2(CCCC2)NC(=O)[C@@H]2CCCN2C(=O)[C@H](CCc2cc(F)c(C(F)(F)F)c(F)c2)NC(=O)CN(C)C(=O)[C@H](Cc2ccc(C(F)(F)F)cc2)N2CC/C=C\C[C@@H](C2=O)N(C)C(=O)CN(C)C1=O (stereo in doubt) [PP3109]

Kd ([1]; SPR, Single Cycle Kinetics; GDP-bound KRAS wild-type protein): 0.012 nM
Compound: CCCN1C(=O)CN(C)C(=O)CN(C)C(=O)[C@H]([C@@H](C)CC)NC(=O)[C@@H]2CCC=CCOc3ccc(cc3)C[C@H]1C(=O)N(C)CC(=O)N[C@@H](CCc1cc(F)c(C(F)(F)F)c(F)c1)C(=O)N1C[C@H](OCC)C[C@H]1C(=O)NC1(CCCC1)C(=O)N(C)[C@@H](C1CCCC1)C(=O)N(C)[C@H](C(=O)N(C)C)CC(=O)N2C [PP0900] ([X7]I[Sar][Sar][X8][Sar][hPhe(3,5-F2-4-CF3)][Hyp](Et)[Ac5c][NMeGly(cPent)][NMeD]-NMe2; staple 1-5; lactam N-11)
NRAS/KRAS (ratio of KD value with respect to NRAS to KD value with respect to KRAS) [2, 6]: C (A compound having a KD ratio of 0.1 or more and less than 3 is denoted as C) | HRAS/KRAS (ratio of KD value with respect to HRAS to KD value with respect to KRAS) [3, 7]: C (A compound having a KD ratio of 0.1 or more and less than 3 is denoted as C)

Kd ([1]; GDP-bound KRAS wild-type protein, SPR Single Cycle Kinetics, 1:1 binding model): 0.065 nM
Compound: CCC[C@H]1C(=O)N[C@@H]([C@@H](C)CC)C(=O)N(C)CC(=O)N(C)[C@H]2C/C=C\CCN(C2=O)[C@@H](Cc2ccc(C(F)(F)F)cc2)C(=O)N(C)CC(=O)N[C@@H](CCc2cc(F)c(C(F)(F)F)c(F)c2)C(=O)N2C[C@H](OCC)C[C@H]2C(=O)NC2(CC(C)(C)C2)C(=O)N(C)[C@@H](CC(C)(C)C)C(=O)N(C)C(C(=O)N(C)C)CC(=O)N1C (stereo partly shown) [PP2730]
NRAS/KRAS (ratio of KD value with respect to GDP-bound NRAS wild-type protein to KD value with respect to KRAS) ([2]; class symbols): A (a compound having 10 or more and less than 20 is denoted as A) | HRAS/KRAS (ratio of KD value with respect to GDP-bound HRAS wild-type protein to KD value with respect to KRAS) ([3]; class symbols): A (a compound having 10 or more and less than 20 is denoted as A)

Compound: CCC[C@H]1C(=O)N[C@@H]([C@@H](C)CC)C(=O)N(C2CC2)CC(=O)N(C)[C@H]2C/C=C\CCN(C2=O)[C@@H](Cc2ccc(C)cc2)C(=O)N(C)CC(=O)N[C@@H](CCc2cc(F)c(C(F)(F)F)c(F)c2)C(=O)N2C[C@H](OCC)C[C@H]2C(=O)N(C)C2(CCC2)C(=O)N(C)[C@@H](C2CCCC2)C(=O)N(C)[C@H](C(=O)N2CCCCC2)CC(=O)N1C [PP3111, (2S,8S,12R,14S,20S,23S,27S,30S,36S,38Z)-20-cyclopentyl-32-cyclopropyl-8-[2-[3,5-difluoro-4-(trifluoromethyl)phenyl]ethyl]-12-ethoxy-4,16,19,22,26,35-hexamethyl-30-[(1S)-1-methylpropyl]-23-(piperidine-1-carbonyl)-27-propyl-2-(p-tolylmethyl)spiro[1,4,7,10,16,19,22,26,29,32,35-undecazatricyclo[34.5.1.0^10,14]dotetracont-38-ene-17,1′-cyclobutane]-3,6,9,15,18,21,25,28,31,34,42-undecone]
Kd [1, 5]: 4.8 nM | NRAS/KRAS (ratio of KD value with respect to GDP-bound NRAS wild-type protein to KD value with respect to KRAS) [2, 8]: A (a compound having 10 or more and less than 20 is denoted as A) | HRAS/KRAS (ratio of KD value with respect to GDP-bound HRAS wild-type protein to KD value with respect to KRAS) [3, 8]: A (a compound having 10 or more and less than 20 is denoted as A)

IC50 [4]: 22.4 nM
Compound: CC[C@H](C)[C@@H]1NC(=O)[C@H](C2CC2)N(C)C(=O)C[C@@H](C(=O)N(C)C)N(C)C(=O)[C@H](C2CCCC2)N(C)C(=O)C2(CCCC2)N(C)C(=O)[C@@H]2CCCN2C(=O)[C@H](CCc2cc(F)c(C(F)(F)F)c(F)c2)NC(=O)CN(C)C(=O)[C@H](Cc2ccc(C)cc2)N2CC/C=C\C[C@@H](C2=O)N(C)C(=O)CN(C)C1=O [PP1809]
NRAS/KRAS (ratio of KD value for NRAS to KD value for KRAS) [2, 6]: A (a compound having 10 or more and less than 20 is denoted as A) | HRAS/KRAS (ratio of KD value for HRAS to KD value for KRAS) [3, 7]: B (a compound having 3 or more and less than 10 is denoted as B)
